Reference: patent publication US6982082B1, “Gene therapy by cell specific targeting” (President and Fellows of Harvard College, priority 1996, dated 2006)

Assays:
[1] = molecular target: FKBP12 F36V (FKBP^t−) (Homo sapiens, UniProt P62942, F37V); test: Scatchard analysis of binding of radiolabeled protein to FKBP^t−
[2] = molecular target: FKBP (Homo sapiens, UniProt P62942); test: binding to FKBP, same assay; settings: in words
[3] = test system: signaling in cells without FKBP containing the compensatory mutation; test: signaling in cells not transfected with compensatory FKBP; assay type: cell-based
[4] = molecular target: T1, CypA wild type (Homo sapiens, UniProt P62937); test: direct fluorescence binding assay, wild type CypA; settings: in words
T1 construct: made in house; host or cells: E. coli
T1 sequence (P62937 whole entry): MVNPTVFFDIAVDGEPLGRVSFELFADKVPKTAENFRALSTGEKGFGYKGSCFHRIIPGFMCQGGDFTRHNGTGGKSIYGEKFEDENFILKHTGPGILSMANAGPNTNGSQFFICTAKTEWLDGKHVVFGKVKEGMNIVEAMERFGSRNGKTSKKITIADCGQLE
Protocol: (§1) To determine CpSar11-CsA's binding characteristics, both the unmodified CypA and the modified CypA (S99T, F113G, C115M) (CypAgtm) was overexpressed in E. coli and purified according to standard techniques. The binding constants for CpSar11-CsA for each receptor was determined with a direct fluorescence binding assay according to the procedure described in Belshaw, P. J., Schoepher, J. G., Lui, K-Q., Morrison, K. L. & Schreiber, S. L., Angew Chem. Int. Ed. Engl. 34:2129–32 (1995).
(§2) Kds were determined using a direct fluorescence binding assay as previously described in Belshaw et al., supra.

[5] = test system: NFAT signaling in Jurkat cells, CypA wild type + NFAT-SEAP; test: cellular NFAT-signaling assay (NFAT-SEAP reporter), Jurkat cells coexpressing wild type CypA; assay type: cell-based
From the text: (§3) FIG. 1 is a graph showing the cellular assay for calcineurin-mediated NFAT-signalling.
(§4) Since it is the composite surface of Cyp-CsA that binds to and thereby inhibits the phosphatase activity of Cn and as the modifications to both the receptor and ligand were expected to be buried in the complex, it was expected that these new receptor-ligand combinations would have the ability to inhibit calcineurin (Cn) and thus NFAT mediated gene activation. This hypothesis was confirmed by using a cellular assay in which NFAT-signaling was measured on a reporter gene, as described below.
(§5) CypA and mutants were sub-cloned from pGEX based expression vectors into pBJ5, a eukaryotic expression vector containing an N-terminal FLAG epitope tag. The signaling assay was performed as previously described in Belshaw, P. J., Spencer, D. M., Crabtree, G. R. & Schreiber, S. L., Chemistry & Biology, 3:731–8 (1996). Briefly 10^7 Jurkat cells were electroporated with NFAT-SEAP reporter plasmid (1 μg) alone or in combination with a Cyp expression vector (5 μg). After 20 hours, cells were stimulated in 96 well plates with phorbol ester (PMA)(50 ng/mL) and ionomycin (1 μM), which mimics T cell activation and receptor signaling. […] Twenty-four hours later, cells were assayed for SEAP activity. The data for each transfection are presented as percent SEAP activity relative to the signal for [CpSar11-CsA]=0.

[6] = test system: NFAT signaling in Jurkat cells, NFAT-SEAP alone (endogenous cyclophilins); test: cellular NFAT-signaling assay, Jurkat cells transfected with NFAT-SEAP alone; assay type: cell-based
Protocol: as §3
as §5, with “activity.” for “activity. The data for each transfection are presented as percent SEAP activity relative to the signal for [CpSar11-CsA]=0.”

[7] = test system: NFAT signaling in Jurkat cells, CypAgtm + NFAT-SEAP; test: cellular NFAT-signaling assay (NFAT-SEAP reporter), Jurkat cells expressing CypAgtm; assay type: cell-based
From the text: as §3, §4, §5

[8] = molecular target: T2, CypA (S99T, F113G, C115M) (CypAgtm) (Homo sapiens, UniProt P62937, C115M/F113G/S99T); test: direct fluorescence binding assay, modified CypA
T2 construct: made in house; host or cells: E. coli
T2 sequence (P62937 whole entry S99T/F113G/C115M): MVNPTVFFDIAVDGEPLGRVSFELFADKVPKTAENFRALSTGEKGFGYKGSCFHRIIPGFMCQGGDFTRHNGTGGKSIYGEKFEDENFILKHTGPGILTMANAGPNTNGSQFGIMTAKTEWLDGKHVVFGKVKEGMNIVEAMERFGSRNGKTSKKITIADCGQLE
Protocol: as §1, §2

[9] = test system: NFAT signaling in cells expressing CypA (S99T, F113A) (CypAat); test: cellular NFAT-signaling assay, cells expressing CypAat; assay type: cell-based
Protocol: as §5
Presumably this was due to formation of endogenous Cyp-MeIle11-CsA complexes that inhibited Cn.

FKBP12 F36V (FKBP^t−), sequence (P62942 whole entry F37V): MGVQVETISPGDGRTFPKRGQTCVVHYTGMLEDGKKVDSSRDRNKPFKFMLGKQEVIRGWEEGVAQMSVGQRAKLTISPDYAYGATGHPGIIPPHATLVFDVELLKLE
FKBP, sequence (P62942 whole entry): as the sequence (P62942 whole entry F37V) above, with V37F counted along it

Molecule: 9-S-methoxy-FK506
- Kd ([1]; Scatchard analysis): 5 nM
- binding to FKBP12F36V ([1]; in words): does bind
- binding to endogenous FKBP [2]: does not bind
- effect on signaling [3]: no effect on signaling

Molecule: C/C=C/C[C@@H](C)[C@@H](O)[C@H]1C(=O)N[C@@H](CC)C(=O)N(C)CC(=O)N(C)[C@@H](CC(C)C)C(=O)N[C@@H](C(C)C)C(=O)N(C)[C@@H](CC(C)C)C(=O)N[C@@H](C)C(=O)N[C@H](C)C(=O)N(C)[C@@H](CC(C)C)C(=O)N(C)[C@@H](CC(C)C)C(=O)N(C)[C@@H](C2CCCC2)C(=O)N1C [CpSar11-CsA, alpha-cyclopentyl, sarcosine11-CsA]
- affinity for wild type CypA [4]: little affinity
- IC50 ([5]; CypA wild type + NFAT-SEAP, PMA and ionomycin stimulation, read-out: IC50 in Cellular NFAT-Signalling): > 400 nM
- effect on reporter gene expression ([5]; concentrations up to 400 nM, cells coexpressing a wild type cyclophilin): little or no effect
- effect on reporter gene expression ([6]; concentrations up to 400 nM, cells expressing endogenous cyclophilins alone): little or no effect
- IC50 ([7]; CypAgtm + NFAT-SEAP, PMA and ionomycin stimulation, read-out: IC50 in Cellular NFAT-Signalling): 25 nM
- inhibition of NFAT signaling ([7]; cells expressing CypAgtm): potently inhibited NFAT signaling
- Kd ([8]; CypAgtm, read-out: Binding Constant Kd): 9 nM
- affinity for CypAgtm ([8]; in words): high affinity

Molecule: MeIle11-CsA
- inhibition of NFAT signaling [9]: potently inhibited NFAT signaling
- inhibition of NFAT signaling ([6]; cells transfected with the NFAT reporter gene alone (data not shown)): still inhibited NFAT signaling
